Literature values in patent publication US20120252835A1, “STABLE TEMSIROLIMUS COMPOSITION AND PROCESS OF PREPARING SAME” (ASTRON RESEARCH LIMITED, priority 2011, published 2012).

Rapamycin, 42-[3-hydroxy-2-(hydroxymethyl)-2-methylpropanoate] [Temsirolimus]
Solubility in alcohols acceptable for parenteral administration (ethanol, propylene glycol, polyethylene glycol and the likes): soluble
Solubility in water (water): practically insoluble
